For orientation: IC50 means the concentration at which inhibition is half-maximal. Low readings indicate inhibition by little substance, high ones a need for much substance.

We go through 2 compounds from paper PMC12372887, “Mechanism and cellular actions of the potent AMPK inhibitor BAY-3827” (Science Advances, 2025).

SMILES strings stand for the structures. “And” between values parts separate entries of the source, which are not always exact repeats. Equal entries are not always repeated.

Holding throughout (assay): Cell-free AMPK kinase assay (SAMS peptide)
What all share (format): biochemical

Assay [1] concerns the target T1, AMPKα2β2γ1 (Homo sapiens, UniProt O43741+P54619+P54646).
T1 construct: made in house; host or cells: HEK293 (transient transfection, anti-FLAG immunoprecipitate)
As for the experimental part:
(§1) Heterotrimeric human AMPK FLAG- α1β1γ1, FLAG- α2β1γ1, and FLAG- α2β2γ1, as well as human FLAG-CaMKK2 and FLAG-ULK1, were produced in mammalian HEK293 cells as described ([66], [67]). For AMPK expression, the cells were triply transfected at 60% confluency using FuGene HD (Roche Applied Science) and 1 μg of pcDNA3 plasmid expression constructs for AMPK Flag-α1, β1-Myc, β2-Myc, and HA-γ1. For CaMKK2 expression, the cells were transfected with 1 μg of pcDNA3 Flag-CaMKK2 plasmid. For ULK1 expression, the cells were transfected with […] of pcDNA3 FLAG-ULK1 plasmid. After 48 hours, the transfected cells were harvested by rinsing with ice-cold PBS, followed by rapid lysis using 500 μl of lysis buffer. AMPK, CaMKK2, and ULK1 kinase activities were determined by phosphorylation of synthetic peptide substrates: SAMS (HMRSAMSGLHLVKRR), CaMKKtide ([…]), and S108tide. (KLPLTRSHNNFVARRR), respectively. Briefly, recombinant AMPK, CaMKK2, or ULK1 were immunoprecipitated from 10 μg of transfected cultured cell lysate using 10 μl of anti-FLAG M2 agarose beads [50% (v/v)] (Merck MilliporeSigma), washed, and then added to a 25-μl reaction containing assay buffer [50 mM Hepes-NaOH (pH 7.4), 1 mM DTT, and 0.02% (v/v) Brij-35], 200 μM synthetic peptide substrate (SAMS, CaMKKtide, or S108tide), 200 or 20 μM [γ-^32P]-ATP (PerkinElmer), 5 mM MgCl2, in the presence of 0 to 1 μM BAY-3827 or BAY-974. Reactions were performed at 30°C and terminated after 10 min by spotting 15 μl onto phosphocellulose paper. Radioactivity was quantified by liquid scintillation counting. Data visualization and nonlinear regression fitting were performed in GraphPad Prism v10.
(§2) Data points are plotted as means ± SEM. Data were inputted, and all statistical tests were performed using GraphPad Prism, version 10.1.0. One- or two-way analysis of variance (ANOVA) statistical tests were conducted using Tukey’s correction for multiple comparisons; specific test will be stated in the figure legend. Significance was accepted as P < 0.05. N number and statistical details for each experiment are reported in each figure legend. […] To estimate IC50 values, nonlinear regression fitting was conducted using the model (Inhibitor) versus response—variable slope in GraphPad Prism (version 10.1.0) and estimating values reported in nanomolar. To estimate binding affinities (Kd) from performed spectral shift binding assays, data were fitted using a one-site total model [Y = BmaxX/(Kd + X) + NSX + Background] where X is the ligand concentration, Bmax represents the maximum binding, and NS is the slope of the nonlinear regression of Y/X. Values are reported in means ± SEM in micromolar.

In assay [2] the target is T2, AMPKα1β1γ1 (Homo sapiens, UniProt P54619+Q13131+Q9Y478).
T2 construct: made in house; host or cells: HEK293 (transient transfection, anti-FLAG immunoprecipitate)
T2 sequence (Q13131 whole entry): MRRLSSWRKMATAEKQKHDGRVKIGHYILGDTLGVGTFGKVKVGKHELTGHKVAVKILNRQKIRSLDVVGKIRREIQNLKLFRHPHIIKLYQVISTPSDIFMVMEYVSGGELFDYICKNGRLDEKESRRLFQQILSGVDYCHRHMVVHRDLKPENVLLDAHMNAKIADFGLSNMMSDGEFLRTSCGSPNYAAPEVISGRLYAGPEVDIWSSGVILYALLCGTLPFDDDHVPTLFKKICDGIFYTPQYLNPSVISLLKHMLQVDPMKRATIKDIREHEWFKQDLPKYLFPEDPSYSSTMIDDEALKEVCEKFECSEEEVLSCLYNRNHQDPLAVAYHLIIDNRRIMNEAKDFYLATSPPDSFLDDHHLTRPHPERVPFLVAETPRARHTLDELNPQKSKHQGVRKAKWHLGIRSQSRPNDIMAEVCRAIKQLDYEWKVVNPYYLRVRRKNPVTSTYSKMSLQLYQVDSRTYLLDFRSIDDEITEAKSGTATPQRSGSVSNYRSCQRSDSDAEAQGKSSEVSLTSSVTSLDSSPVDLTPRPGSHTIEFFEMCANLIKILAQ
T2 sequence (Q9Y478 whole entry partner): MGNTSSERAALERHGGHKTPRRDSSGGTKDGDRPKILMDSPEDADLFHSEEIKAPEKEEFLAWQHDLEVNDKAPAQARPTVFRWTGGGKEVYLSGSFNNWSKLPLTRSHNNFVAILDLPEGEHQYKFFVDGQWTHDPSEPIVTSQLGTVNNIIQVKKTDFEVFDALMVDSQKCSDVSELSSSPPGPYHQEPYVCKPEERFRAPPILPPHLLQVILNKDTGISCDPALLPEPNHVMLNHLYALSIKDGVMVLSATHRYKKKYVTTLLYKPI
T2 sequence (P54619 whole entry partner): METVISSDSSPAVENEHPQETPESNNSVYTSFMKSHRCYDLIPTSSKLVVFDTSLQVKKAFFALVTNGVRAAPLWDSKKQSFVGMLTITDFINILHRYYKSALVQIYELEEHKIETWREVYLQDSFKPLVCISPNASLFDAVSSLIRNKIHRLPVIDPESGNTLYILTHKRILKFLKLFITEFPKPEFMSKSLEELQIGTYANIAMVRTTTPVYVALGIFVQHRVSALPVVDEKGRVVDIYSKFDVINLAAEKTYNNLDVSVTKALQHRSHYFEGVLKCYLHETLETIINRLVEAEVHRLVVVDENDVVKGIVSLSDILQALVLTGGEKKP
How it is done: as §1, §2

For assay [3], the target named is T3, AMPKα2β1γ1 (Homo sapiens, UniProt P54619+P54646+Q9Y478).
T3 construct: made in house; host or cells: HEK293 (transient transfection, anti-FLAG immunoprecipitate)
T3 sequence (P54646 whole entry): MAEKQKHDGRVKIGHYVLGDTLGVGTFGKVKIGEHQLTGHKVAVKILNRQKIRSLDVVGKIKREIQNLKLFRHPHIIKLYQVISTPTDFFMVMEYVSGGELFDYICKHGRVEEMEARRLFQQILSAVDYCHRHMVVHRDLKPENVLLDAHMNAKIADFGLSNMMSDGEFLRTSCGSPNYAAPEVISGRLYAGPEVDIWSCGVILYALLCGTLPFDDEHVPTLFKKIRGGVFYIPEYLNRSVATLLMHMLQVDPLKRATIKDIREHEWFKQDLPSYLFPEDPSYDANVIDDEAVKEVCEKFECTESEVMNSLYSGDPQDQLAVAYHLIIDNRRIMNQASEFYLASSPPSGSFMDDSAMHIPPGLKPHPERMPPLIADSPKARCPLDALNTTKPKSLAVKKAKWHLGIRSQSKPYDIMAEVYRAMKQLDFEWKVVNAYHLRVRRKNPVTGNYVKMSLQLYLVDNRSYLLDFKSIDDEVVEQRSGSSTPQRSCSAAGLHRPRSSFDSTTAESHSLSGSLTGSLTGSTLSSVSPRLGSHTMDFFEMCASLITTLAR
T3 sequence (Q9Y478 whole entry partner): as the sequence (Q9Y478 whole entry partner) above
T3 sequence (P54619 whole entry partner): as the sequence (P54619 whole entry partner) above
How it is done:
as §1, §2

In assay [4] the target is T4, AMPKα2β2γ1 (Homo sapiens, UniProt P54646).
T4 construct: made in house; host or cells: HEK293 (transient transfection, anti-FLAG immunoprecipitate)
T4 sequence (P54646 whole entry): as the sequence (P54646 whole entry) above
T4 sequence (O43741 whole entry partner): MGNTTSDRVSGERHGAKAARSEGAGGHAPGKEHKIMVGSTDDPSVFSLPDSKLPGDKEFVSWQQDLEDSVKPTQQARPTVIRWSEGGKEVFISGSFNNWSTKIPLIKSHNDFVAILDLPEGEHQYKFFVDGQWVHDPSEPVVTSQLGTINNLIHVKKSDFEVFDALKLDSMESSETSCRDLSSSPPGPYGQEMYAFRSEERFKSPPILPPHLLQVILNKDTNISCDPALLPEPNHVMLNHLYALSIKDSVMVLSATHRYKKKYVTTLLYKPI
T4 sequence (P54619 whole entry partner): as the sequence (P54619 whole entry partner) above
Particulars: 200 μM ATP; 0 to 1 μM compound. How it is done: as §1, §2

Assay [5] addresses T5, AMPKα1β1γ1 (Homo sapiens, UniProt Q13131).
T5 construct: made in house; host or cells: HEK293 (transient transfection, anti-FLAG immunoprecipitate)
As to conditions: 200 μM ATP; 0 to 1 μM compound. How it is done: as §1, §2

The target of assay [6] is T6, AMPKα2β1γ1 (Homo sapiens, UniProt P54646).
T6 construct: made in house; host or cells: HEK293 (transient transfection, anti-FLAG immunoprecipitate)
T6 sequence (P54646 whole entry): as the sequence (P54646 whole entry) above
T6 sequence (Q9Y478 whole entry partner): as the sequence (Q9Y478 whole entry partner) above
T6 sequence (P54619 whole entry partner): as the sequence (P54619 whole entry partner) above
Particulars: 200 μM ATP; 0 to 1 μM BAY-974. As for the experimental part: as §1, §2

T1 sequence (P54646 whole entry): as the sequence (P54646 whole entry) above
T1 sequence (O43741 whole entry partner): as the sequence (O43741 whole entry partner) above
T1 sequence (P54619 whole entry partner): as the sequence (P54619 whole entry partner) above
T5 sequence (Q13131 whole entry): as the sequence (Q13131 whole entry) above
T5 sequence (Q9Y478 whole entry partner): as the sequence (Q9Y478 whole entry partner) above
T5 sequence (P54619 whole entry partner): as the sequence (P54619 whole entry partner) above

Consider `CCc1ccccc1C(=O)Nc1n[nH]c2c(C)c(F)c(C3C(C#N)=C(C)N(C)C(C)=C3C#N)cc12` [BAY-3827, N-[5-(3,5-dicyano-1,2,6-trimethyl-4H-pyridin-4-yl)-6-fluoro-7-methyl-1H-indazol-3-yl]-2-ethylbenzamide], for which the IC50 is 2.8 nM and 2.83 nM against AMPKα2β2γ1 [1] (20 μM ATP); 36.5 nM against AMPKα2β2γ1 [1] (200 μM ATP); 1.8 nM at AMPKα1β1γ1 [2] (20 μM ATP); 31.2 nM against AMPKα1β1γ1 [2] (200 μM ATP); 4.1 nM and 4.08 nM at AMPKα2β1γ1 [3] (20 μM ATP); 57 nM and 57.1 nM against AMPKα2β1γ1 [3] (200 μM ATP).

Turning to `CC1=C(C#N)C(c2ccc3c(c2)c(NC(=O)c2ccccc2C)nn3C)C(C#N)=C(C)N1` [BAY-974, N-[5-(3,5-dicyano-2,6-dimethyl-1,4-dihydropyridin-4-yl)-1-methylindazol-3-yl]-2-methylbenzamide], the “inhibitory effect on AMPK complex” value against AMPKα2β2γ1 [4], on AMPKα1β1γ1 [5] and at AMPKα2β1γ1 [6] was “no effect” in each case.
